{"source": "paper PMC11433764", "about": "“A Novel Compound from the Phenylsulfonylpiperazine Class: Evaluation of In Vitro Activity on Luminal Breast Cancer Cells” (Molecules, 2024)", "format_in_all_cases": "cell-based", "key": {"ENTPD5": {"system": "ENTPD5", "test": "qPCR, ENTPD5 expression in MCF7", "details": "vs untreated cells", "procedure": "(§1) Total RNA was extracted using Trizol reagent (Invitrogen), according to the manufacturer’s protocol. The quality of extracted RNA was verified by the spectrophotometric readings at 260 and 280 nm (Nanodrop 1000-ThermoFisher), and the first strand of cDNA was synthesized from 1 µg of total RNA via reverse transcription using GoScript™ Reverse Transcription Mix (Promega, Madison, WI, EUA). qPCR analysis was performed using 5.0 μL of Power SYBR Green PCR Master Mix (Applied Biosystems, Carlsbad, CA, USA) and run on a StepOnePlus Systems (Applied Biosystems, Carlsbad, CA, USA) device with the following cycling parameters: 40 cycles of 95 °C for 10 s and 60 °C for 30 s. The comparative Cq was used to find the relative expression of CDH1 (E-caderina), ENTPD1 (ectonucleoside triphosphate diphosphohydrolase 1), ENTPD2 (ectonucleoside triphosphate diphosphohydrolase 2), ENTPD3 (ectonucleoside triphosphate diphosphohydrolase 3), ENTPD5 ([…]) and KRT10 (keratin 10) genes, after relative standard curve optimization. β-2-microglobulin (β2M) was used as a reference gene. The primer sequences are described in Table 3."}, "MCF-10A": {"system": "MCF-10A", "test": "MTT cell viability, non-tumor cell line MCF-10A", "details": "Homo sapiens, MCF-10A, 48 h, 1.25–160 μM, read-out: IC50 MCF-10A", "procedure": "(§2) Four different breast cells lines were used in this study: MCF-10A (non-tumorigenic), MCF7 (ER+ BC), MDA-MB453 (HER2+ BC) and MDA-MB231 (TNBC). All lineages were obtained from the American Type Culture Collection (ATCC; Manassas, VA, USA) and maintained at a temperature of 37 °C according to the supplier’s recommendations. Only MDA-MB231 cells were not kept in an atmosphere of 5% CO2. MCF-10A was grown in Dulbecco’s Modified Eagle’s Medium (DMEM F12, Gibco, ThermoFisher Scientific, Waltham, MA, USA) supplemented with 20 ng/mL epidermal growth factor (Gibco, ThermoFisher Scientific, Waltham, MA, USA), 0.5 μg/mL hydrocortisone (Sigma-Aldrich, Sigma-Aldrich, St. Louis, MO, USA) and 10 μg/mL insulin (Gibco, ThermoFisher Scientific, Waltham, MA, USA). MCF7 was cultivated in Roswell Park Memorial Institute Medium (RPMI-1640, Gibco, ThermoFisher Scientific, Waltham, MA, USA), MDA-MB453 in IMDM and MDA-MB231 in Leibovitz’s medium (L-15, Gibco, ThermoFisher Scientific, Waltham, MA, USA). All media were supplemented with 10% fetal bovine serum (FBS, Gibco, ThermoFisher Scientific, Waltham, MA, USA) and 50 µg/mL of gentamicin (Cultilab, Campinas, SP, Brazil). The cells were confirmed to be free of mycoplasma and passaged using a 0.25% trypsin-EDTA solution when confluency reached 80–90%.\n(§3) Cell viability was determined by spectrophotometric quantification of MTT (3-[4,5-dimethyl-thiazol-2-yl]-2,5-diphenyltetrazolium bromide—Invitrogen. Waltham, MA, USA) reduction to formazan crystals. Cells were seeded at the density of 1 × 10^4 cells/well (MCF-10A, MDA-MB453), 1.5 × 10^4 cells/well (MDA-MB231) and 3 × 10^3 cells/well (MCF7) in 96-well culture dishes and incubated with different concentrations of the compounds (1.25, 2.5, 5, 10, 20, 40, 80 and 160 µM) for 48 h. The medium was than replaced by MTT solution (0.5 mg/mL) and plates were kept at 37 °C for 4 h. After the aspiration of the media, the formazan crystals were diluted with 100 μL of dimethyl-sulfoxide (DMSO)/well and the absorbance at 570 nm was measured using a spectrophotometer (Thermo Plate TP-Reader, Waltham, MA, USA). Cytotoxicity was calculated using the following formula: Cytotoxicity (%) = [absorbance of cells treated with the compounds/absorbance of cells treated with DMSO) × 100]. The IC50 was determined for each compound and was defined as the concentration required to inhibit 50% of cell growth, compared to the control sample (cells treated with DMSO 0.05%).\n(§4) Data were presented as the mean ± standard deviation (SD) and analyzed using GraphPad Prism 9.0 software (GraphPad Software Inc., La Jolla, CA, USA). All data were assayed in triplicate. Statistical analysis was performed using one-way ANOVA, Tukey´s HSD post hoc test and Student’s t-test. The IC50 was calculated using non-linear regression and the selectivity index (SI) was calculated by the ratio between the IC50 values corresponding to the non-tumor cell lineage (MCF-10A) and the IC50 values corresponding to the BC cell lines. Statistical significance was accepted at p values < 0.05."}, "MDA-MB-453": {"system": "MDA-MB-453", "test": "MTT cell viability, MDA-MB-453", "procedure": "as §2, §3, §4"}, "ENTPD1": {"system": "ENTPD1", "test": "qPCR, ENTPD1 expression in MCF7", "details": "vs untreated cells", "procedure": "as §1"}, "KRT10": {"system": "KRT10", "test": "qPCR, KRT10 expression in MCF7", "details": "vs untreated cells", "procedure": "as §1"}, "ENTPD2": {"system": "ENTPD2", "test": "qPCR, ENTPD2 expression in MCF7", "details": "vs untreated cells", "procedure": "as §1"}, "MCF7": {"system": "MCF7", "test": "Clonogenic (colony formation) assay", "details": "MCF7, 9.00 µM (highest concentration), 48 h", "procedure": "MCF7 cells were seeded at a density of 500 cells per well in 6-well culture. […] The medium was removed and, after 12 days, cells were washed 3 times with 1 × Phosphate-buffered saline (PBS), fixed with formaldehyde (4% v/v) and stained with crystal violet solution (0.5% v/v). Plates were scanned using L-Pix (Loccus Biotecnologia, Cotia, SP, Brazil) to obtain the images, incubated with 300 µL of acetic acid 33% v/v, and 100 µL of this solution was transferred to 96-well plates to evaluate the absorbance at 570 nm in a microplate reader (Thermo Plate TP-Reader, ThermoFisher). The number of colonies per well was calculated in relation to the untreated cells (considered as 100% of colony formation)."}, "MDA-MB-231": {"system": "MDA-MB-231", "test": "MTT cell viability, MDA-MB-231", "procedure": "as §2, §3, §4"}, "CDH1": {"system": "CDH1", "test": "qPCR, CDH1 expression in MCF7", "details": "vs untreated cells", "procedure": "as §1"}}, "note": "Entries after “also recorded” stand apart in the source; their conditions may differ."}
{"molecule": "O=C(c1ccc(-n2cnnn2)cc1)N1CCN(S(=O)(=O)c2ccc(Cl)cc2)CC1", "note": "[Compound 3, (4-(1H-tetrazol-1-yl)phenyl)(4-((4-chlorophenyl)sulfonyl)piperazin-1-yl)methanone]", "values": [{"measurement": "Fold Change ENTPD5 mRNA", "setting": "ENTPD5; MCF7, 1.125 µM", "value": 2.046}, {"measurement": "Fold Change ENTPD5 mRNA", "setting": "ENTPD5; MCF7, 2.25 µM", "value": 1.437}, {"measurement": "Fold Change ENTPD5 mRNA", "setting": "ENTPD5; MCF7, 4.5 µM", "value": 1.306}, {"measurement": "IC50", "setting": "MCF-10A", "value": "> 160", "unit": "µM"}, {"measurement": "IC50", "setting": "MDA-MB-453; Homo sapiens, MDA-MB-453, 48 h, MTT, 1.25–160 μM, read-out: IC50 MDA-MB-453", "value": 80, "unit": "µM"}, {"measurement": "SI MDA-MB-453", "setting": "MDA-MB-453; IC50 MCF10A / IC50 MDA-MB-453", "value": ">2.00"}, {"measurement": "Fold Change ENTPD1 mRNA", "setting": "ENTPD1; MCF7, 1.125 µM", "value": 1.102}, {"measurement": "Fold Change ENTPD1 mRNA", "setting": "ENTPD1; MCF7, 2.25 µM", "value": 1.331}, {"measurement": "Fold Change ENTPD1 mRNA", "setting": "ENTPD1; MCF7, 4.5 µM", "value": 1.006}, {"measurement": "Fold Change KRT10 mRNA", "setting": "KRT10; MCF7, 1.125 µM", "value": 1.309}, {"measurement": "Fold Change KRT10 mRNA", "setting": "KRT10; MCF7, 2.25 µM", "value": 1.913}, {"measurement": "Fold Change KRT10 mRNA", "setting": "KRT10; MCF7, 4.5 µM", "value": 1.383}, {"measurement": "Fold Change ENTPD2 mRNA", "setting": "ENTPD2; MCF7, 1.125 µM", "value": 1.374}, {"measurement": "Fold Change ENTPD2 mRNA", "setting": "ENTPD2; MCF7, 2.25 µM", "value": 1.417}, {"measurement": "Fold Change ENTPD2 mRNA", "setting": "ENTPD2; MCF7, 4.5 µM", "value": 1.109}, {"measurement": "Colony formation", "setting": "MCF7", "value": "significantly reduced colony formation; also recorded: Colony formation was inhibited"}, {"measurement": "IC50", "setting": "MDA-MB-231; Homo sapiens, MDA-MB-231, 48 h, MTT, 1.25–160 μM, read-out: IC50 MDA-MB-231", "value": 83, "unit": "µM"}, {"measurement": "SI MDA-MB-231", "setting": "MDA-MB-231; IC50 MCF10A / IC50 MDA-MB-231", "value": ">1.93"}, {"measurement": "Fold Change CDH1 mRNA", "setting": "CDH1; MCF7, 1.125 µM", "value": 1.874}, {"measurement": "Fold Change CDH1 mRNA", "setting": "CDH1; MCF7, 2.25 µM", "value": 1.045}]}
